Test results from patent US10954252B1, “Inhibitors of human immunodeficiency virus replication” (ViiV HEALTHCARE UK (NO.5) LIMITED, priority 2017, dated 2021).

Legend:
[1] = Stereoisomer interconversion on storage in MeOH at ambient condition; type: physicochemical; conditions: stored in MeOH at ambient condition
[2] = tested on: recombinant NL4-3 virus (nef section replaced with Renilla luciferase gene) in MT-2 cells; experiment: HIV cell culture assay (antiviral activity, luciferase readout); type: cell-based; conditions: Renilla, NL43, Table 1; MT-2 cells infected for 4-5 days with recombinant NL4-3 luciferase virus
Outline: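 NL4-3 reporter virus carrying Renilla luciferase in place of part of nef, produced in 293T cells, was used to infect MT-2 cells for 4-5 days with serial compound dilutions. Luciferase activity was read with a live-cell substrate; EC50 derived from the median effect equation.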

[3] = Compound cytotoxicity, XTT-based colorimetric assay; type: cell-based; conditions: human, uninfected MT2 cells, Table 1, day 4, XTT
Outline: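 CC50 from uninfected MT2 cells run under the antiviral-assay protocol without virus. Viability read on day 4 by XTT colorimetric assay.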

SMILES	conversion to another stereoisomer on storage [1]	EC50 [2]	CC50 at 4 days [3]
Cn1nc(NS(C)(=O)=O)c2c(Cl)ccc(-n3c(C(Cc4cc(F)cc(F)c4)NC(=O)Cn4nc(C(F)F)c5c4C(F)(F)[C@@H]4C[C@H]54)nc4nc(C(F)(F)F)ccc4c3=O)c21 (mixture of isomers) [Example 11.1, N—((S)-1-(3-(4-chloro-1-methyl-3-(methylsulfonamido)-1H-indazol-7-yl)-4-oxo-7-(trifluoromethyl)-3,4-dihydropyrido[2,3-d]pyrimidin-2-yl)-2-(3,5-difluorophenyl)ethyl)-2-((3bS,4aR)-3-(difluoromethyl)-5,5-difluoro-3b,4,4a,5-tetrahydro-1H-cyclopropa[3,4]cyclopenta[1,2-c]pyrazol-1-yl)acetamide]	one of the isomers in Example 11.1 converts to Example 11.2	520 nM	> 10000 nM
Cn1nc(NS(C)(=O)=O)c2c(Cl)ccc(-n3c([C@H](Cc4cc(F)cc(F)c4)NC(=O)Cn4nc(C(F)F)c5c4C(F)(F)C4CC54)nc4nc(C(F)(F)F)ccc4c3=O)c21 (stereo in doubt) [Example 11.2, N—((S)-1-(3-(4-chloro-1-methyl-3-(methylsulfonamido)-1H-indazol-7-yl)-4-oxo-7-(trifluoromethyl)-3,4-dihydropyrido[2,3-d]pyrimidin-2-yl)-2-(3,5-difluorophenyl)ethyl)-2-((3bS,4aR)-3-(difluoromethyl)-5,5-difluoro-3b,4,4a,5-tetrahydro-1H-cyclopropa[3,4]cyclopenta[1,2-c]pyrazol-1-yl)acetamide]	converts slowly to one of the isomers in Example 11.1	51 nM	> 10000 nM
Cn1nc(NS(C)(=O)=O)c2c(Cl)ccc(-n3c([C@H](Cc4cc(F)cc(F)c4)NC(=O)Cn4nc(C(F)F)c5c4C(F)(F)C4CC54)nc4nc(Cl)ccc4c3=O)c21 (stereo in doubt) [Example 12.2, N—((S)-1-(7-chloro-3-(4-chloro-1-methyl-3-(methylsulfonamido)-1H-indazol-7-yl)-4-oxo-3,4-dihydropyrido[2,3-d]pyrimidin-2-yl)-2-(3,5-difluorophenyl)ethyl)-2-((3bS,4aR)-3-(difluoromethyl)-5,5-difluoro-3b,4,4a,5-tetrahydro-1H-cyclopropa[3,4]cyclopenta[1,2-c]pyrazol-1-yl)acetamide]	converts slowly to one of the stereoisomers in Example 12.1	42 nM	> 3300 nM
